Measurements taken from ChEMBL document CHEMBL1136164, “Carbonic anhydrase inhibitors: X-ray crystallographic structure of the adduct of human isozyme II with a bis-sulfonamide-two heads are better than one?” (Bioorg Med Chem Lett, 2003).

Legend:
Oryctolagus cuniculus [1] = organism: Oryctolagus cuniculus; experiment: Prolonged IOP lowering by the compound in glaucomatous rabbit for 5 to 6 hours; assay type: functional
Oryctolagus cuniculus [2] = organism: Oryctolagus cuniculus; experiment: Prolonged IOP lowering by the compound in glaucomatous rabbit for 3 hours; assay type: functional

**Q.** `NS(=O)(=O)c1ccc(CCNC(=O)c2ccc(S(N)(=O)=O)cc2)cc1` was tested. Which IOP lowering (Oryctolagus cuniculus [1]) did it give?
**A.** 9.5 mmHg

**Q.** With `CCN[C@H]1C[C@H](C)S(=O)(=O)c2sc(S(N)(=O)=O)cc21` [DORZOLAMIDE] as the compound, how does the IOP lowering (Oryctolagus cuniculus [2]) read?
**A.** 3.6 mmHg
